Assays:
[1] = test system: H1781 cells; test: Antiproliferation WST-1 assay, H1781; assay type: cell-based; details: NCI-H1781, NSCLC, HER-2 G776ins V_G/C, lapatinib-resistant
Description: WST-1 is better than MTT for analyzing cell proliferation, because it can be reduced to soluble formazan by dehydrogenase in mitochondria and has little toxicity to cells. Cell proliferation was determined using WST-1 dye (Beyotime Inst Biotech, China) according to manufacture’s instructions. Brieﬂy, 5 × 10^3 cells per well were seeded in a 96-well plate, grown at 37 ℃ for 24 h, and then placed in serum-starved conditions for a further 6 h. Subsequently, cells were treated with compounds (Table 1) at increasing concentrations in the presence of 10% FBS for 24 or 48h. After 10 µL WST-1 dye was added to each well, cells were incubated at 37 ℃ for 2 h and the absorbance was ﬁnally determined at 450 nm using a microplate reader.

[2] = target: T1, cSRC (Homo sapiens, UniProt P12931); test: Tyrosine kinase profiling (Alphascreen), cSRC; assay type: biochemical; details: ATP concentration = Km
T1 construct: purchased Millipore Corp
T1 sequence (P12931 whole entry, species assumed): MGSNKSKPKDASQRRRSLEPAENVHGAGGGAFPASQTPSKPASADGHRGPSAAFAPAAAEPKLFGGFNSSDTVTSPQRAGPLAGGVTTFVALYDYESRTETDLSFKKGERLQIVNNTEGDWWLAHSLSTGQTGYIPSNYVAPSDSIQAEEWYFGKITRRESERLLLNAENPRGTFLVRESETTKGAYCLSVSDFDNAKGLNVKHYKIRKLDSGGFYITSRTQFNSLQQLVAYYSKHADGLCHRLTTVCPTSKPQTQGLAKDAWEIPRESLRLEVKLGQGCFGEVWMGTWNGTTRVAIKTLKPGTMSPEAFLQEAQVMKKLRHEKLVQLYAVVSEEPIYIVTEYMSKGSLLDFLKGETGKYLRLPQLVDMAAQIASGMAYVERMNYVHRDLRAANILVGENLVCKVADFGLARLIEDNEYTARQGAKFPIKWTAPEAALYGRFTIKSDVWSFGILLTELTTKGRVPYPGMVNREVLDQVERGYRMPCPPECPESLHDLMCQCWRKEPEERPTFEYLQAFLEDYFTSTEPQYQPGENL
Description: (§1) The cytoplasmic domain of vascular endothelial growth factor receptor 2 (VEGFR2), platelet-derived growth factor receptor α (PDGFRα), cSRC were purchased from Millipore Corp. Assays for 3 tyrosine kinases were performed in 384 well plates using the Alphascreen® system (PerkinElmer) at room temperature. Enzyme reactions were performed in 50 mM Tris–HCl, pH7.5, 5 mM MnCl2, 5 mM MgCl2, 0.01% Tween-20, 2 mM dithiothreitol and 0.1 μg/ml biotinylated poly-GluTyr (4:1) containing optimized concentration of enzyme and ATP as described below.
Prior to the kinase reaction, compound and enzyme were incubated for 5 min at room temperature. The reactions were initiated by adding ATP. After the reaction period as described below at room temperature, the reactions were stopped by the addition of 25 μl of 100 mM EDTA, 10 μg/ml Alphascreen streptavidin donor beads and 10 μg/ml acceptor beads described below in 62.5 mM HEPES, pH 7.4, 250 mM NaCl, and 0.1% BSA. Plates were incubated in the dark for more than 12 h and then read by EnVision 2102 Multilabel Reader (PerkinElmer). The well containing substrate and enzyme without compound was used as total reaction control. […]

[3] = target: T2, CDK2/CycA (Homo sapiens, UniProt P24941); test: Serine/threonine kinase profiling ([γ-32P] ATP), CDK2; assay type: biochemical
T2 construct: 6His (C); made in house; host or cells: baculovirus expression system
Description: (§2) Assays for 4 serine/threonine kinases using radio labeled [γ-^32P] ATP (GE Healthcare, Piscataway, NJ) were performed in 96 well plates. Mitogen-activated protein kinase p38α (p38α), was expressed as N-terminal FLAG-tagged protein using a baculovirus expression system. Aurora-A and -B were expressed as N-terminal 6xHis tagged protein using a baculovirus expression system. CDK2/CycA was expressed as C-terminal 6His-tagged CDK2, and N-terminal GST-tagged Cyclin A protein using a baculovirus expression system.
(§3) The reaction conditions were optimized for each kinase: p38α (100 ng/well of enzyme, 1 μg/well of MBP (Wako Pure Chemical Ind., Osaka, Japan), 0.1 μCi/well of [γ-^32P] ATP, 60 min reaction at 30 ℃); Aurora-A and -B (50 ng/well of enzyme, 30 μM of Aurora substrate peptide, 0.2 μCi/well of [γ-^32P] ATP, 60 min reaction at room temperature); CDK2/CycA (1.8 mUnits/well of enzyme, 1 μg/well of Histone H1 (Calbiochem), 0.2 μCi/well of [γ-^32P] ATP, 20 min reaction at room temperature).
(§4) All the four enzyme reactions were performed in 25 mM HEPES, pH 7.5, 10 mM magnesium acetate, 1 mM dithiothreitol and 0.5 μM ATP containing optimized concentration of enzyme, substrate and radiolabeled ATP as described above in a total volume of 50 μl. […] The radioactivity was counted by a TopCount scintillation counter (PerkinElmer).

[4] = target: T3, p38α (Homo sapiens, UniProt Q16539); test: Serine/threonine kinase profiling ([γ-32P] ATP), p38α; assay type: biochemical
T3 construct: FLAG (N); made in house; host or cells: baculovirus expression system
T3 sequence (Q16539 whole entry): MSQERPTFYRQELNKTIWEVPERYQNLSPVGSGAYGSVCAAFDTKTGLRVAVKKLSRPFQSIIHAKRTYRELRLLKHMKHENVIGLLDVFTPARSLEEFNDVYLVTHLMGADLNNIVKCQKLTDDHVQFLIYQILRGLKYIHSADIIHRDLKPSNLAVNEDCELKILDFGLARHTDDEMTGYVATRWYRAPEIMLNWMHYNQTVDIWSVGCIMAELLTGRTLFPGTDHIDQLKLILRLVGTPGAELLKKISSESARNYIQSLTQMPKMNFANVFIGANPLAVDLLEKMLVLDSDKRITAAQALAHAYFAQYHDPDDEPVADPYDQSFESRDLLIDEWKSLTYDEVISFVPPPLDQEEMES
Description: as §2, §3, §4

[5] = target: T4, Aurora A (Homo sapiens, UniProt O14965); test: Serine/threonine kinase profiling ([γ-32P] ATP), Aurora A; assay type: biochemical; details: ATP concentration = Km
T4 construct: 6xHis (N); made in house; host or cells: baculovirus expression system
T4 sequence (O14965 1-403): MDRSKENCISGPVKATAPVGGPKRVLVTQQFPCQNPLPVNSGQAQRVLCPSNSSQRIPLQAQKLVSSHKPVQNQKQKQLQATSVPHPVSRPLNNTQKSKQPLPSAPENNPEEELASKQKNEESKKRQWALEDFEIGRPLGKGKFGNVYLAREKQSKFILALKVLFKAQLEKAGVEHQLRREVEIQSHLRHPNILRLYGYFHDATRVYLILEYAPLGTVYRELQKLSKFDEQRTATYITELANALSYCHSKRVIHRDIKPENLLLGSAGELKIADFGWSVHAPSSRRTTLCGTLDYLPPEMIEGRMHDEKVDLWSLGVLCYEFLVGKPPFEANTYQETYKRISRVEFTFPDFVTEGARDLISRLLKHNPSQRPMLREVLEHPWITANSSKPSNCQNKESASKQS
Description: as §2, §3, §4

[6] = target: T5, Aurora B (Homo sapiens, UniProt Q96GD4); test: Serine/threonine kinase profiling ([γ-32P] ATP), Aurora B; assay type: biochemical; details: ATP concentration = Km
T5 construct: 6xHis (N); made in house; host or cells: baculovirus expression system
T5 sequence (Q96GD4 whole entry): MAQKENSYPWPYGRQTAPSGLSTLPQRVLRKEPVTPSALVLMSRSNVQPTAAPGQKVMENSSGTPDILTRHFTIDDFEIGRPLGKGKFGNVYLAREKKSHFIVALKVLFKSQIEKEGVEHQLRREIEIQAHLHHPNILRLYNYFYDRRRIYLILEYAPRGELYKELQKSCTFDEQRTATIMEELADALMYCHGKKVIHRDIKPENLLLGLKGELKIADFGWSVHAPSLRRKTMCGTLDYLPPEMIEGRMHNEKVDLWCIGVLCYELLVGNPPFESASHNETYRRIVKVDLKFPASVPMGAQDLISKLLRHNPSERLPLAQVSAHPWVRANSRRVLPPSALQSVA
Description: as §2, §3, §4

[7] = test system: several key kinases close to EGFR/HER2; test: Kinase selectivity profile; assay type: biochemical; details: versus EGFR/HER2
Description: as §2, §1

[8] = converted from IC50 by online calculator

O=C(Nc1ccc2ncnc(Nc3cccc(Br)c3)c2c1)c1ccc(C(F)(F)F)cc1O [Compound 21, N-(4-(3-bromophenylamino)quinazolin-6-yl)-2-hydroxy-4-(trifluoromethyl)benzamide]
IC50 [1]: 0.77 ± 0.034 µM | IC50 [2]: 11.9 ± 0.78 µM | IC50 ([3]; ATP concentration = Km): 3.5 µM | pIC50 CDK2 [3, 8]: 5.46 | IC50 ([4]; ATP concentration = Km): 16.1 ± 0.37 µM | pIC50 p38α [4, 8]: 4.79 | IC50 [5]: 58.4 ± 0.78 µM | IC50 [6]: 63.7 ± 1.02 µM | selectivity against major of other kinases screened [7]: more than 100 fold
